From publication PMC9841533, “Microtubule-Stabilizing 1,2,4-Triazolo[1,5-a]pyrimidines as Candidate Therapeutics for Neurodegenerative Disease: Matched Molecular Pair Analyses and Computational Studies Reveal New Structure–Activity Insights” (Journal of Medicinal Chemistry, 2022)
Like-named read-outs stand apart in the source and are kept apart here.

How the values were obtained:
[1] = tested on: acetylated α-tubulin (AcTub) levels in QBI293 cells; assay: QBI293 cell assay of MT stabilization: acetylated α-tubulin ELISA; format: cell-based
Procedure, shortened: (§1)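 AcTub and α-Tub were quantified by ELISA in whole-cell extracts normalized by BCA protein and expressed relative to vehicle. AcTub changes were also scaled to a 100 nM reference stabilizer control.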

[2] = tested on: total α-tubulin (α-Tub) levels in QBI293 cells; assay: QBI293 cell assay: total α-tubulin ELISA; format: cell-based
Procedure, shortened: as §1

[3] = tested on: AcTub levels in OA-treated primary mouse cortical neurons; assay: Okadaic acid (OA) assay, AcTub ELISA in primary mouse cortical neurons; format: cell-based; conditions: OA 15 nM, 8 h, compound 1 and 10 μM
Procedure: To further evaluate the activity of Class I alkyne derivatives and hybrid compounds, several compounds were also assessed for their ability to compensate for MT deficits in primary neuron cultures that were treated with the phosphatase inhibitor, okadaic acid (OA). As previously described,[11] treatment of rodent neurons with OA results in tau hyperphosphorylation and MT collapse that presumably results, at least in part, from tau disengagement from MTs. Co-treatment of neurons with Class I TPDs, such as 1, along with OA prevents this MT collapse, with a resulting normalization of MT structure and neuronal processes which can be observed upon visual inspection of the neurons or through an assessment of neuronal AcTub levels, while Class II TPDs are generally unable to provide meaningful compensation of MT deficits, especially when tested at higher (i.e., 10 μM) compound concentration.[11],[12]
Figure 4 ELISA determination of AcTub levels in homogenates from primary rat cortical neurons treated with either vehicle, or OA (15 nM) in the presence of vehicle or TPD 1, 8, 9 (A); and primary mouse cortical neurons treated with vehicle, or OA (15 nM) in the presence of vehicle or TPD 1, 24, 45, 46, 53, 54 (B). Error bars represent SEM, with ***, p < 0.001 relative to vehicle treatment in the absence of OA as determined by one-way ANOVA.
Compound-induced changes in acetylated-tubulin and α-tubulin in QBI293 cells or primary mouse or rat neurons were as previously described.[11],[12] For compound testing, QBI293 cells were plated at a density of 2 × 10^5 cells/well in 12-well plates. The plated cells were incubated overnight, after which the medium was aspirated and fresh medium containing vehicle (0.25–0.3% DMSO) or test compound was added. Test compounds were prepared as 4–20 mM stock solutions in 100% DMSO, and these were diluted in culture medium prior to addition to the QBI293 cells. After 4 h incubation, whole-cell extracts were prepared from the QBI293 cells as described[11] and the supernatant fraction from each sample was assessed for protein content by bicinchoninic acid (BCA) assay. The amount of acetyl-tubulin (AcTub) and α-tubulin (αTub) within the cell extract samples was quantified using specific enzyme-linked immunosorbent assays (ELISA), as previously described.[11] Acetyl-tubulin levels were determined in a similar manner in rat or mouse cortical neuron cultures in which embryonic dissociated cortical neurons were plated at 3 × 10^5 cells/well in poly-D-lysine-coated 12-well plates, essentially as previously described.[11] The neurons were allowed to grow for 10 days before they were treated for 8 h with 15 nM okadaic acid in the presence or absence of test compound prepared as described above, or vehicle (0.25% DMSO). Culture homogenates were prepared for the determination of AcTub levels by ELISA as previously described.[11]
VehicleVehicleVehicleVehicle25 (1 µM)
Figure S2. Assessment of AcTub levels in primary mouse cortical neurons treated with vehicle,
(§2) (1 picture or pasted object on this page, not shown here)

[4] = tested on: total α-tubulin (α-Tub) levels in QBI293 cells; design: method as in PMID 26980057, PMID 33411523; conditions: 4 h incubation, reported in previous studies, cited from earlier work
[5] = tested on: acetylated α-tubulin (AcTub) levels in QBI293 cells; design: method as in PMID 26980057, PMID 33411523; conditions: 4 h incubation, 10 μM, reported in previous studies; cited from earlier work
[6] = Resazurin cell viability assay, QBI293; format: cell-based; conditions: human, QBI293 cells, three biological replicates, read-out: QBI293 CC50 ± SD
Procedure: (§3) Cell Culture. QBI293 and HeLa cells were cultured in DMEM supplemented with 10% heat-
(§4) inactivated FBS and 1% penicillin-streptomycin. Cells were grown in T175 cell culture flasks maintained
(§5) at 37 ℃ in 5% CO2 and sub-c ultured when at 60-8 0% cell confluence.
(§6) Resazurin Cell Viability Assay. Cytotoxicity in QBI293 and HeLa cells was measured using the
(§7) resazurin cell viability assay.1 Test compounds were serially diluted in DMSO and added to 96-well
(§8) polystyrene assay plates to give final assay concentrations ranging from 100 nM to 4000 nM (1 µL; 1%
(§9) total DMSO). Fresh medium was added to the assay plate (49 µL/well). QBI293 or HeLa cells were
(§10) cells/well. Assay plates were incubated at 37 °C and 5% CO2 for 48 h, followed by addition of 20 µL 0.5
(§11) mM resazurin (Alfa Aesar, Cat. B21187) in PBS to each well. Assay plates were incubated in the dark for
as §2
(§12) 4 h at 37 °C. Fluorescence was measured at 531 nm and 595 nm excitation and emission wavelengths,
(§13) respectively, using a 2104 EnVision® multilabel plate reader. The viability of each well was normalized to
(§14) positive and negative controls in each assay plate. Dose-response curves were generated and CC50 values
(§15) calculated with GraphPad Prism, version 9.3 (San Diego, CA) using a sigmoidal four parameter logistic
(§16) curve. The means ± standard deviations from three biological replicates are shown.
(§17) (1) O'Brien, J.; Wilson, I.; Orton, T.; Pognan, F. Investigation of the Alamar Blue (resazurin) fluorescent
(§18) dye for the assessment of mammalian cell cytotoxicity. Eur. J. Biochem. 2000, 267 (17), 5421-5426.

[7] = Resazurin cell viability assay, HeLa; format: cell-based; conditions: human, HeLa cells, three biological replicates, read-out: HeLa CC50 ± SD
Procedure: as §3, §4, §5, §6, §7, §8, §9, §10, §11, §2, §12, §13, §14, §15, §16, §17, §18

[8] = 4 h, 1 uM compound, read-out: AcTub (1uM)
[9] = 4 h, 10 uM compound, read-out: AcTub (10 uM)
[10] = 4 h incubation, 1 μM, read-out: AcTub 1 μM, fold-change compared to vehicle (DMSO)-treated cells
[11] = 4 h incubation, 10 μM, read-out: AcTub 10 μM, fold-change compared to vehicle (DMSO)-treated cells
[12] = 4 h, 1 uM compound, read-out: AlfaTub (1uM)
[13] = 4 h, 10 uM compound, read-out: AlfaTub (10 uM)
[14] = 4 h incubation, 1 μM, read-out: α-Tub 1 μM, fold-change compared to vehicle (DMSO)-treated cells
[15] = 4 h incubation, 10 μM, read-out: α-Tub 10 μM, fold-change compared to vehicle (DMSO)-treated cells

Row | SMILES | AcTub (1 uM - normalized) ([1]; 1 uM compound) | AcTub (10 uM - normalized) ([1]; 10 uM compound) | fold induction at 1 µM [1, 8] | fold induction at 10 µM [1, 9] | AcTub 1 μM, fold-change compared to positive control compound 5 (100 nM) (in parentheses) ([1]; 4 h incubation, 1 μM) | fold induction at 1 µM [1, 10] | AcTub 10 μM, fold-change compared to positive control compound 5 (100 nM) (in parentheses) ([1]; 4 h incubation, 10 μM) | fold induction at 10 µM [1, 11] | fold induction at 1 µM [2, 12] | fold induction at 10 µM [2, 13] | fold induction at 1 µM [2, 14] | fold induction at 10 µM [2, 15] | prevention/correction of OA-induced MT collapse (AcTub levels) [3] | α-Tub 10 μM, fold-change compared to vehicle (DMSO)-treated cells ([4]; 10 μM) | AcTub 10 μM, fold-change compared to vehicle (DMSO)-treated cells [5] | CC50 at 48 h [6] | CC50 at 48 h [7] | α-Tub 1 μM, fold-change compared to vehicle (DMSO)-treated cells ([4]; 1 μM)
1 | C[C@@H](Nc1c(-c2c(F)cc(OCCCO)cc2F)c(Cl)nc2ncnn12)C(C)(C)C [Compound 25, (R)-3-(4-(5-Chloro-7-((3,3-dimethylbutan-2-yl)amino)-[1,2,4]triazolo[1,5-a]pyrimidin-6-yl)-3,5-difluorophenoxy)propan-1-ol] | 1.01 | 0.98 | 9.17 | 8.92 | 1.01 fold-change | 9.17 ± 0.13 | 0.98 fold-change | 8.92 ± 0.36 | 0.96 | 1.06 | 0.96 ± 0.03 | 1.06 ± 0.03 | lesser recovery of OA-induced MT collapse |  |  |  |  | 
2 | CC(C)[C@@H](C)Nc1c(-c2c(F)cc(C#CCCO)cc2F)c(Cl)nc2ncnn12 [Compound 45, (R)-4-(4-(5-Chloro-7-((3-methylbutan-2-yl)amino)-[1,2,4]triazolo[1,5-a]pyrimidin-6-yl)-3,5-difluorophenyl)but-3-yn-1-ol] | 0.48 | 0.82 | 5.9 | 10.1 | 0.48 fold-change | 5.9 ± 0.32 | 0.82 fold-change | 10.1 ± 0.71 | 1 | 0.95 | 1 ± 0.03 | 0.95 ± 0.03 | can prevent the OA-induced MT collapse |  |  |  |  | 
3 | CC(C)[C@@H](C)Nc1c(-c2c(F)cc(C#CCCCO)cc2F)c(Cl)nc2ncnn12 [Compound 46, (R)-5-(4-(5-Chloro-7-((3-methylbutan-2-yl)amino)-[1,2,4]triazolo[1,5-a]pyrimidin-6-yl)-3,5-difluorophenyl)pent-4-yn-1-ol] | 0.40 | 0.68 | 2.59 | 4.43 | 0.40 fold-change | 2.59 ± 0.16 | 0.68 fold-change | 4.43 ± 0.56 | 1 | 1.37 | 1 ± 0.08 | 1.37 ± 0.05 | can prevent the OA-induced MT collapse |  |  |  |  | 
4 | C[C@H](Nc1c(-c2c(F)cc(OCCCO)cc2F)c(Cl)nc2ncnn12)C(F)(F)F [Compound 64] | 1.24 | 0.19 | 6.76 | 1.03 |  |  |  |  | 0.73 | 0.37 |  |  |  | 0.37 ± 0.02 fold-change | 1.03 ± 0.02 fold-change | 226 ± 17 nM | 189 ± 19 nM | 
5 | C[C@H](Nc1c(-c2c(F)cc(OCCCN(C)C)cc2F)c(Cl)nc2ncnn12)C1(C)N=N1 [Compound 67] | 1.01 | 0.04 | 6.7 | 0.28 |  |  |  |  | 0.69 | 0.78 |  |  |  |  | 0.28 ± 0.03 fold-change |  |  | 0.69 ± 0.05 fold-change
6 | CC(=O)O[C@H]1C(=O)[C@@]2(C)[C@H]([C@H](OC(=O)c3ccccc3)[C@]3(O)C[C@H](OC(=O)[C@H](O)[C@@H](NC(=O)c4ccccc4)c4ccccc4)C(C)=C1C3(C)C)[C@]1(OC(C)=O)CO[C@@H]1C[C@@H]2O [Taxol, reference compound] |  |  |  |  |  |  |  |  |  |  |  |  |  |  |  | 1.29 ± 0.16 nM | 1.53 ± 0.26 nM | 
7 | CC[C@]1(O)C[C@@H]2CN(CCc3c([nH]c4ccccc34)[C@@](C(=O)OC)(c3cc4c(cc3OC)N(C)[C@H]3[C@@](O)(C(=O)OC)[C@H](OC(C)=O)[C@]5(CC)C=CCN6CC[C@]43[C@@H]65)C2)C1 [Vinblastine, reference compound] |  |  |  |  |  |  |  |  |  |  |  |  |  |  |  | 3.23 ± 0.67 nM | 2.11 ± 0.1 nM | 
